For one test, the target named is T1, recombinant human DHFR (Homo sapiens, UniProt P00374).
T1 construct: purchased Sigma Aldrich (St. Louis, MO, USA)
T1 sequence (P00374 1-187): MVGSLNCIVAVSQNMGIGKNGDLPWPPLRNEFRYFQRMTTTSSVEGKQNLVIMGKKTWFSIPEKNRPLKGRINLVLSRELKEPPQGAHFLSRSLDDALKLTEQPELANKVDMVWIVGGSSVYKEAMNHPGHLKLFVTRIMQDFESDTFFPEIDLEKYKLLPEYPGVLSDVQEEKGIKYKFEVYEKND
Nature of the test: Dihydrofolate reductase (DHFR) inhibition assay (assay kit). Format: biochemical. To be noted: mean of three assays ± S.D. An excerpt:
All reagents were purchased from Fluka (Sigma-Aldrich, Poznań, Poland), Merck (Darmstadt, Germany), or Alfa Aesar (Karlsruhe, Germany) and used without further purification. Dichloromethane (DCM) and dimethylformamide (DMF) were stored in 4 Å molecular sieves. The Dihydrofolate Reductase Assay Kit was purchased from Sigma Aldrich (St. Louis, MO, USA).
The inhibition of dihydrofolate reductase by the new TMP analogs, that is, determining their effect on the activity of recombinant human DHFR, was tested according to the instructions provided by the manufacturer and used previously.
In all experiments, the mean values for three assays ± standard deviations (S.D.) were calculated. The results were submitted to statistical analysis using the Student’s t-test. Differences were considered significant at p < 0.05.

Another test concerns the target β-secretase (BACE1). Also noted: method as in PMID 37834347. To be noted: cited from earlier work.
Test [1] concerns the target acetylcholinesterase (AChE). The arrangement: method as in PMID 37834347. The conditions noted are these: cited from earlier work.
The subject of a further test is various cancer cells. The arrangement: method as in PMID 36680987. The conditions noted are these: cited from earlier work.
The next test deals with plasmid DNA. To be noted: ethidium bromide displacement, netropsin as standard; cited from earlier work.

The structures appear in SMILES notation.

Turning to `COc1cc(C(=O)Nc2cccc(NC(=O)c3cc(OC)c(OC)c(OC)c3)c2)cc(OC)c1OC` [JW1], the IC50 – broadly, the point on the concentration scale where inhibition reaches its midpoint – on recombinant human DHFR is 8.5 ± 0.06 µM.

Regarding `COc1cc(OC)cc(C(=O)Nc2cccc(NC(=O)c3cc(OC)cc(OC)c3)c2)c1` [JW2], the IC50 on recombinant human DHFR is 10.15 ± 0.02 µM.

In the case of `COc1ccc(C(=O)Nc2cccc(NC(=O)c3ccc(OC)c(OC)c3)c2)cc1OC` [JW3], on recombinant human DHFR, the IC50 stood at 9.83 ± 0.03 µM.

Take `COc1ccc(C(=O)Nc2cccc(NC(=O)c3ccc(OC)cc3)c2)cc1` [JW4]: the half-inhibitory concentration (IC50) on recombinant human DHFR was determined as 15.3 ± 0.04 µM.

Take `COc1cc(C(=O)Nc2ccc(NC(=O)c3cc(OC)c(OC)c(OC)c3)cc2)cc(OC)c1OC` [JW5]: the IC50 on recombinant human DHFR was found to be 4.8 ± 0.05 µM.

For the compound `COc1cc(OC)cc(C(=O)Nc2ccc(NC(=O)c3cc(OC)cc(OC)c3)cc2)c1` [JW6], the IC50 on recombinant human DHFR turned out to be 4.72 ± 0.05 µM.

For `COc1ccc(C(=O)Nc2ccc(NC(=O)c3ccc(OC)c(OC)c3)cc2)cc1OC` [JW7], the IC50 on recombinant human DHFR was 8.13 ± 0.06 µM.

For the compound `COc1ccc(C(=O)Nc2ccc(NC(=O)c3ccc(OC)cc3)cc2)cc1` [JW8], the IC50 was 12.15 ± 0.02 µM at recombinant human DHFR, 9.01 µM at β-secretase (BACE1) and 0.056 µM in test [1].

`COc1cc(C(=O)Nc2cccc([N+](=O)[O-])c2)cc(OC)c1OC` [MB1]: the IC50 at recombinant human DHFR worked out at 10.16 ± 0.01 µM.

As for `COc1cc(NC(=O)c2cc(OC)c(OC)c(OC)c2)cc(OC)c1OC` [MB3], the IC50 at recombinant human DHFR came to 9.17 ± 0.01 µM. In addition, the antiproliferative activity result in the test on various cancer cells is on record as “showed antiproliferative activity”.

As to `COc1cc(CNC(=O)c2cc(OC)c(OC)c(OC)c2)cc(OC)c1OC` [MB4], the IC50 at recombinant human DHFR was determined as 20.17 ± 0.03 µM. Moreover, the antiproliferative activity entry with various cancer cells was “showed antiproliferative activity”.

Consider `COc1cc(Cc2cnc(N)nc2N)cc(OC)c1OC` [TMP, trimethoprim], for which, in the test on plasmid DNA, the “binding to plasmid DNA” value was “does not bind to the plasmid”.
